Results on 3 molecules are retold here after paper PMC9127232, “Wound Healing Properties of Jasione montana Extracts and Their Main Secondary Metabolites” (Frontiers in Pharmacology, 2022).

Assay [1] in a line: DPPH radical-scavenging assay. As to conditions: for DPPH, IC50: 30 min, absorbance 517 nm, mean ± SD; for antiradical potential in the DPPH method compared with Trolox: vs positive control Trolox IC50 58.6 ± 0.1 μg/mL. The method, then:
All extracts (JM1–JM6) and main components of the tested extracts (9, 12, and 22) were isolated and identified as previously described ([Juszczak et al., 2021]). A total of 130 μL of sample solution at various concentrations was mixed with 70 μL of DPPH (0.2 mg/mL) in a 96-well plate. Then, the reaction mixture was incubated in the dark at room temperature. After 30 min, the absorbance was recorded at 517 nm using a microplate reader (BioTek Instruments microplate spectrophotometer EPOCH 2, Oxfordshire, United Kingdom). A blank solution was prepared by mixing methanol and DPPH solution. Trolox was used as a positive control. The experiment was performed in triplicate. RSA(%)=(C-S)/C×100% where C is the negative control and S is the sample. Concentration of the tested samples, which scavenges 50% of free radicals present in the solution (IC50), was calculated.
A general note: The DPPH test is a chemical assay of radical scavenging.

Assay [2] is described as follows: Ferric reducing antioxidant potential (FRAP). As to conditions: for FRAP: 1 h at 37°C, 594 nm. The method, then: Determination of the ferric reducing antioxidant potential (FRAP) was performed using a ferric reducing antioxidant power assay kit. Ten microliters of each sample (JM1–JM6, 9, 12, 22) was mixed with 190 µL of supplied reaction mix (FRAP assay buffer, FeCl3 solution, FRAP probe). The absorbance was measured after 1 h of incubation at 37°C at 594 nm using a microplate reader. A blank solution contained 10 µL of MeOH instead of extract/compound solution. For further calculations, the ferrous standard curve was evaluated. The values are given as mM ferrous equivalents. All tests were executed in triplicate.

For assay [3], the system named is normal human dermal fibroblast cell line (PCS-201-012). The assay can be described thus: Scratch proliferation and migration assay. The assay is classed as cell-based. As to conditions: 24 h; for cell migration into the injured area: up to 100 μg/mL. The method, then: The normal human dermal fibroblast cell line (PCS-201-012) was cultured in DMEM blended with 10% fetal bovine serum (FBS), 10 μg/mL streptomycin, and 10 units/mol penicillin. The cells were cultured in 5% CO2 and fully humidified at 37°C. All tested compounds were dissolved at a final vehicle (DMSO) concentration of not more than 0.5% (v/v). Cells cultured in drug-free DMEM were used as controls, and cells treated with DMSO alone were used as solvent controls. All extracts (JM1-JM6) and the main components of the tested extracts (9, 12, and 22) were analyzed at the following concentrations: 10, 25, 50, 100, 200, and 300 μg/mL. The in vitro wound healing activity of J. montana extracts and isolated compounds was determined by a scratch assay, which is a model of a wound in which monolayer skin cells, including fibroblasts, react to the disruption of contact between cells and stimulate proliferation and migration by modulating the concentration of growth factors and cytokines at the edge wounds ([Liang et al., 2007]). For this purpose, fibroblast cells were seeded at a density of 2.5 × 10^5 in 6-well cell culture dishes and incubated for 24 h at 37°C. After incubation, a linear scratch was made with a universal sterile 200 μL pipette tip. Cells were incubated with the tested extracts (JM1-JM6) and compounds (9, 12, and 22) at concentrations of 10, 25, 50, 100, 200 and 300 μg/mL for 24 h at 37°C. Allantoin, a plant-derived commercialized drug, was used as the positive control at a concentration of 50 μg/mL to judge the rate of cell migration ([[…] et al., 2020]). After incubation, the migrated cells were washed twice with PBS and observed under a phase contrast microscope. The progress of migration, proliferation and closing of the wound before and after treatment with the tested samples was monitored by imaging with a phase contrast microscope (Nikon Eclipse Ti, Tokyo, Japan) at × 100 magnification and NIS-Elements 3.0 imaging software (Nikon Instruments Inc., Melville, NY, United States).

In assay [4] the test system is IL-8 in fibroblast cells (PCS-201-012). The assay can be described thus: Cytometric Bead Array, IL-8 secretion. The assay is classed as cell-based, human. The settings on record: 24 h. The method, then: (§1) The normal human dermal fibroblast cell line (PCS-201-012) was cultured in DMEM blended with 10% fetal bovine serum (FBS), 10 μg/mL streptomycin, and 10 units/mol penicillin. The cells were cultured in 5% CO2 and fully humidified at 37°C. All tested compounds were dissolved at a final vehicle (DMSO) concentration of not more than 0.5% (v/v). Cells cultured in drug-free DMEM were used as controls, and cells treated with DMSO alone were used as solvent controls. All extracts (JM1–JM6) and the main components of the tested extracts (9, 12, and 22) were analyzed at the following concentrations: 10, 25, 50, 100, 200, and 300 μg/mL. The effect of the tested extracts and fractions (JM1–JM6) as well as 9, 12, and 22 on cytokine (IL-1β, IL-6 IL-8, IL-10, IL-12p70 and TNF) secretion was determined using the Cytometric Bead Array (CBA) Human Inflammatory Cytokine Kit according to the manufacturer’s protocols. After 24 h of incubation with the test samples at concentrations of 10, 25, 50, 100, 200, and 300 μg/mL, fibroblast cells were washed with PBS, trypsinized, resuspended in DMEM and centrifuged (1,200 rpm, 10 min, 4°C). The supernatant was then replaced with 50 μL of assay diluent with the addition of 50 μL of assay beads and 50 μL of PE-labeled antibodies (detection reagent) from the human inflammatory cytokine kit. Incubation was performed for 3 h at room temperature without daylight, after which the fibroblast cells were washed and centrifuged (1,200 rpm, 5 min, 4°C). The cell pellet was resuspended in 300 μL of wash buffer and then immediately subjected to analysis by FCAP Array v3 software on a BD FACSCanto II flow cytometer (both from BD Biosciences Systems, San Jose, CA, United States) calibrated with BD Cytometer Setup and Tracking beads (BD Biosciences, San Diego, CA, United States).

Assay [5] concerns IL-6 in fibroblast cells (PCS-201-012). In words: Cytometric Bead Array, IL-6 secretion. The assay is classed as cell-based, human. As to conditions: 24 h. Here is the method: as §1

Several values for one entry are separate records, joined by “and”; a condition that tells them apart may be missing. Equal entries are not always repeated.

As for `O=c1cc(-c2ccc(O)c(O)c2)oc2cc(O[C@@H]3O[C@H](CO)[C@@H](O)[C@H](O)[C@H]3O[C@@H]3OC[C@@H](O)[C@H](O)[C@H]3O)cc(O)c12` [Compound 9, luteolin 7-O-β-D-xylosyl-(1-2)-β-D-glucoside], in assay [1], the “DPPH, IC50” value is 20.34 ± 0.8 µg/mL and the “antiradical potential in the DPPH method compared with Trolox” value is reported as “stronger antiradical potential”. The same molecule had an FRAP in assay [2] of 60.59 ± 0.46 mM Fe^2+eq/mL. Moreover, in assay [3] (50 μg/mL, comparable with allantoin 50 μg/mL), the “effectiveness in the scratch test” value is on record as “most effective”. The “cell migration into the injured area” value in assay [3] is on record as “significantly increased”. Also, the “IL-8 levels (in words)” value in assay [4] (10–100 μg/mL) is “significant increase”. The “IL-8 levels (in words)” value in assay [4] (100–300 μg/mL) is recorded as “reduced IL-8 levels”. Moreover, in assay [5], the “concentration at which the highest increase in IL-6 secretion occurred” value came to 100 µg/mL.
Turning to `O=c1cc(-c2ccc(O)c(O)c2)oc2cc(O[C@@H]3O[C@H](CO)[C@@H](O)[C@H](O)[C@H]3O)cc(O)c12` [Compound 12, luteolin 7-O-β-D-glucoside], in assay [1], the “DPPH, IC50” value is 16.6 ± 0.7 µg/mL and 16.59 ± 0.7 µg/mL; the “antiradical potential in the DPPH method compared with Trolox” value was “stronger antiradical potential”. Besides, in assay [2], the “FRAP / reducing power” value came to 51.9 ± 0.5 mM Fe^2+/mL and the FRAP came out at 51.88 ± 0.53 mM Fe^2+eq/mL. Further, the “cell migration into the injured area” value in assay [3] is on record as “significantly increased”. Also, the “IL-8 levels (in words)” value in assay [4] (100–300 μg/mL) is reported as “reduced IL-8 levels”. The “concentration at which the highest increase in IL-6 secretion occurred” value in assay [5] came out at 100 µg/mL.
With `O=c1cc(-c2ccc(O)c(O)c2)oc2cc(O)cc(O)c12` [Compound 22, 5,7,3',4'-tetrahydroxyflavone], in assay [1], the “DPPH, IC50” value is 10.6 ± 0.7 µg/mL and 10.65 ± 0.7 µg/mL; the “antiradical potential in the DPPH method compared with Trolox” value was “stronger antiradical potential”. In assay [2], the “FRAP / reducing power” value is on record as 60.59 ± 0.5 mM Fe^2+/mL and the FRAP was found to be 51.81 ± 0.78 mM Fe^2+eq/mL. In addition, in assay [3] (only at 10 μg/mL), the “stimulation of fibroblast migration” value is recorded as “capable of stimulating cells only at a low concentration”. This molecule also yielded an IL-8 level in assay [4] (300 μg/mL, control 8,396.8 ± 2,771.1 pg/mL) of 60.8 ± 8 pg/mL. Moreover, the “IL-8 expression (in words)” value in assay [4] (10–300 μg/mL) is “decrease in its expression was most pronounced”. In addition, in assay [5] (10–300 μg/mL, vs untreated control), the “IL-6 expression levels (in words)” value is “dose-dependent decrease”.
